For orientation: Dmax means the greatest extent of degradation seen. As a reminder, the DC50 is the concentration at which degradation of the target reaches its halfway point.

The record followed here is patent publication US20260092061A1, “COMPOUNDS FOR TARGETED PROTEIN DEGRADATION” (Amphista Therapeutics Limited, priority 2022, published 2026).

Molecules are shown by their SMILES. Where two headings read alike, the source gives them in different places. Bounds are passed on as bounds.

Holding throughout (type): cell-based
Experiment [1] concerns the target T1, BRD9 (Homo sapiens, UniProt Q9H8M2).
T1 sequence (Q9H8M2 1-597): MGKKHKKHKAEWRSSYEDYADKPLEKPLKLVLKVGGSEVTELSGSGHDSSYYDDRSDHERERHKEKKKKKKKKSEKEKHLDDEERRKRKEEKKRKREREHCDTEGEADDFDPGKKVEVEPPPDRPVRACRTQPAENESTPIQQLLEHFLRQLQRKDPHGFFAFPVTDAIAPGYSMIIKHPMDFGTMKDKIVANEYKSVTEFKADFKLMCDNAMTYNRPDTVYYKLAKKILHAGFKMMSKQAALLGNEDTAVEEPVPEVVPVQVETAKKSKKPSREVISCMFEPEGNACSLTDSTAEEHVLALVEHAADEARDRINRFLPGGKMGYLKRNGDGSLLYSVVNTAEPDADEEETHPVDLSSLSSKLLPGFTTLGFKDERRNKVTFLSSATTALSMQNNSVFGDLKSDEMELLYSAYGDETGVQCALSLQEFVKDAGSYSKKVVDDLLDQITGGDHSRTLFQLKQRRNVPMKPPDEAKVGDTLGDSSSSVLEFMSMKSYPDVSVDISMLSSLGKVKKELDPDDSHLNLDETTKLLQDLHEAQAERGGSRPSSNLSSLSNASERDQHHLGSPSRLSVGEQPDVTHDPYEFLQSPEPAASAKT
Description: BRD9 degradation, HiBiT-BRD9 KI HEK293 (LgBiT) cells, NanoGlo Lytic Endpoint assay (Assay Protocol 1). Particulars: for DC50: 6 h of treatment, read-out: Assay 1 DC50. The essentials:
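HiBiT-tagged BRD9 knock-in HEK293 (LgBiT) cells exposed to compounds for 6 h at 37 °C, 5% CO2. Residual BRD9 measured by HiBiT lytic luminescence. % BRD9 remaining normalised to DMSO-treated cells (high) and no-cell wells (low).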
For orientation: The HiBiT peptide binds its large partner to form an active luciferase.

Experiment [2] concerns the target T1, BRD9. The experiment is described as above. As to conditions: Table 3; assay 1; 5 h of treatment.
The target in experiment [3] is T2, BRD4 (Homo sapiens, UniProt O60885).
T2 construct: HiBiT-BRD4 HEK293 CRISPR CPM (Promega CS302312); host or cells: HEK293, CRISPR-edited (HiBiT at the BRD4 locus)
Description: BRD4 degradation, HiBiT-BRD4 HEK293 CRISPR CPM cells, NanoGlo Lytic Endpoint assay (Assay Protocol 1). As to conditions: HEK293; Table 3; assay 1; 1 μM compound at 5 h of treatment.

Where [4] appears, read: HEK293, Table 2, BRD9 degradation, Assay Protocol 1, 1 μM compound at 6 h of treatment, read-out: Assay 1 Dmax.
Where [5] appears, read: HEK293, Table 3, assay 1, 1 μM compound at 5 h of treatment, read-out: BRD9 Dmax (%).
[6] abbreviates: Table 2, BRD9 degradation, Assay Protocol 1.

As for `COc1cc(-c2cn(C)c(=O)c3cnccc23)cc(OC)c1CN1CCN(Cc2cccc3c2CCN(C(=O)/C(C#N)=C\c2ncc(C)s2)C3C)CC1` (mixture of isomers) [Compound A10, (E/Z)-2-(5-((4-(2,6-dimethoxy-4-(2-methyl-1-oxo-1,2-dihydro-2,7-naphthyridin-4-yl)benzyl)piperazin-1-yl)methyl)-1-methyl-1,2,3,4-tetrahydroisoquinoline-2-carbonyl)-3-(5-methylthiazol-2-yl)acrylonitrile], the Dmax at 1 µM in experiment [1] (setting [4]) was 40 to 70%. For the same compound, the Dmax was 40 to 70% in experiment [1] (setting [5]) and < 25% in experiment [3]. In addition, the DC50 in experiment [1] (setting [6]) and in experiment [2] was < 1.25 nM each time.
Turning to `COc1cc(-c2cn(C)c(=O)c(C)c2C)cc(OC)c1CN1CCCN(Cc2cccc3c2CCN(C(=O)/C(C#N)=C/C(C)(C)C)C3C)CC1` (mixture of isomers) [Compound A72, (E/Z)-2-(5-((4-(2,6-dimethoxy-4-(1,4,5-trimethyl-6-oxo-1,6-dihydropyridin-3-yl)benzyl)-1,4-diazepan-1-yl)methyl)-1-methyl-1,2,3,4-tetrahydroisoquinoline-2-carbonyl)-4,4-dimethylpent-2-enenitrile], the Dmax at 1 µM in experiment [1] (setting [4]) and in experiment [1] (setting [5]) was 70 to 75% in each case. Besides, the DC50 in experiment [1] (setting [6]) and in experiment [2] was 10 to 25 nM throughout. In experiment [3], the Dmax is < 25%.
As to `COc1cc(-c2cn(C)c(=O)c(C)c2C)cc(OC)c1CN1CCC(Oc2cccc3c2CCN(C(=O)/C(C#N)=C/c2cccc(Br)n2)C3C)CC1` (mixture of isomers) [Compound A68, (E/Z)-3-(6-bromopyridin-2-yl)-2-(5-((1-(2,6-dimethoxy-4-(1,4,5-trimethyl-6-oxo-1,6-dihydropyridin-3-yl)benzyl)piperidin-4-yl)oxy)-1-methyl-1,2,3,4-tetrahydroisoquinoline-2-carbonyl)acrylonitrile], the Dmax at 1 µM in experiment [1] (setting [4]) and in experiment [1] (setting [5]) was > 75% in each case. The DC50 in experiment [1] (setting [6]) and in experiment [2] was 1.25 to 10 nM in each case. The Dmax in experiment [3] was < 25%.
